Source: patent US9974767B2, “Statins in the treatment of muscular dystrophies and myopathies” (University of Washington, priority 2014, dated 2018)
“Also recorded” adds a separate entry of the source.

Columns and labels:
Assay type in all cases: in vivo, mouse
CD68 = CD68 immunofluorescence of TA muscle sections (inflammation); details: mdx Sim vs mdx Con, 8 months treatment
Experimental: Next, we quantified the extent of inflammation, a key feature of the dystrophic muscle pathology, by immunofluorescence of TA muscle sections with CD68, a marker of macrophages and other inflammatory cells.
Muscles were imbedded in O.C.T compound and frozen in isopentane cooled in liquid nitrogen. Cryosections (10 μm thick) were placed on a glass side. Sections were fixed with either ice-cold methanol or 2% paraformaldehyde for 5 to 10 min. Some sections were stained with Haemotoxylin and Eosin (H & E) using standard procedures. For immunofluorescence, sections were incubated in blocking buffer (0.8% BSA and 1% fish gelatin in PBS) for 45 min. Primary antibodies; Fibronectin (Sigma), CD68 (Abcam), Caveolin3 (BD Biosciences), and Myosin Heavy Chain 1, 2A and 2B (Developmental Studies Hybridoma Bank) were added for 1 hr 30 min at room temperature. AlexaFluor conjugated secondary antibodies (Life Technologies) were then added for 1 hr 30 min. In some experiments, DAPI was also added to detect nuclei. […] For fluorescence quantification (CD68, fibronectin and myosin heavy chains), images were converted to grayscale in Image J and a threshold applied to calculate the area of fluorescence as a percent of the total area of the section. Fibers with central nuclei were expressed as a percent of total fibers with detectable nuclei (ie. both central and peripheral). […]

WT mice [1] = assay: H&E histology of TA muscle, wild type mice; details: 8 months, 5-10 mg/kg/day
Experimental: The dose used (5-10 mg/kg/day) is equivalent to a low to moderate dose in humans.
(§1) DMD is a chronic, progressively degenerative disease and consequently potential treatments need to be effective over many years. […] The calculated dose given to the mice was between 5-10 mg/kg/day. This would equate to 20-40 mg/day for a 10 yea old DMD boy weighing 30 kg, based on mouse to human equivalence calculations, which is within the recommended dose range of statins for children.
Muscles were imbedded in O.C.T compound and frozen in isopentane cooled in liquid nitrogen. Cryosections (10 μm thick) were placed on a glass side. Sections were fixed with either ice-cold methanol or 2% paraformaldehyde for 5 to 10 min. Some sections were stained with Haemotoxylin and Eosin (H & E) using standard procedures. For immunofluorescence, sections were incubated in blocking buffer (0.8% BSA and 1% fish gelatin in PBS) for 45 min. […] For fluorescence quantification (CD68, fibronectin and myosin heavy chains), images were converted to grayscale in Image J and a threshold applied to calculate the area of fluorescence as a percent of the total area of the section. Fibers with central nuclei were expressed as a percent of total fibers with detectable nuclei (ie. both central and peripheral).

WT mice [2] = assay: Plasma CK activity in wild type mice; details: 8 months treatment, vs untreated WT
Experimental: The activity levels of the mice were measured by voluntary running wheel activity over 2 days. […] Therefore, since CK was measured after the running wheel activity, the dramatic reduction in CK levels in Simvastatin-treated mdx mice is not related to exercise levels. […] Therefore, statins cause a robust reduction in CK release from dystrophic muscle both in long-term treated mice starting from a young age (3 weeks to 8 months), and in old mice (12 months) over a 2 month period.
as §1
Male dystrophin-deficient (mdx) and wild type (WT) mice on the C57BL/10ScSn background were used for all experiments, which were approved by the Institutional Animal Care and Use Committee (IACUC) at the University of Washington.
Simvastatin powder (TCI America) was formulated as a treatment in two ways; in the drinking water and in the food. […]
Plasma CK was evaluated as a measure of whole body muscle damage. […]

atrogin-1 = assay: Atrogin-1 mRNA in quadriceps muscles, qPCR; details: old mdx Sim mice
Description: Another pathway that has been implicated in statin myopathy is muscle atrophy mediated by atrogin-1, a ubiquitin-protein ligase that stimulates protein breakdown. Atrogin-1 is induced by statin treatment in animal models and humans with statininduced myopathy. However, in DMD, atrogin-1 levels are consistently lower than in normal muscle and are not increased at any stage of the disease.
Total RNA was isolated from quadriceps of WT, mdx, and simvastatintreated mdx mice using Trizol (Life Technologies) and further purified using an RNAeasy Kit (Qiagen). Real-time quantitative RT-PCR (qPCR) was performed using TaqMan chemistry and the ABI 7000 sequence detection system with 50 ng of RNA, ABI Fast Virus 1-Step Master Mix reagents, and primer sets specific for atrogin-1 and HPRT (Applied Biosystems). Data were obtained from 5 mice in each treatment group and normalized to the internal HPRT control.

mdx mice [3] = assay: Plasma creatine kinase (CK) activity as measure of whole-body muscle damage
H2O2 (ROS) = assay: H2O2 levels in diaphragm muscle homogenates, amplex red assay; details: old mdx mice
Description: FIG. 14A. Western blot (top) showing the levels of the autophagy proteins LC3A (upper band) and LC3B (lower band) for mdx Con and mdx Sim. GAPDH is shown as a loading control. Pooled data (bottom) for LC3A and LC3B. **P<0.01 compared to mdx Con. FIG. 14B. Hydrogen peroxide (H2O2) levels in diaphragm muscle homogenates, as quantified with a fluorescent amplex red assay. *P<0.05 compared to mdx Con. FIG. 14C. Atrogin-1 mRNA levels in quadriceps muscles were quantified by qPCR and normalized to the internal control (HPRT). *P<0.05 compared to WT Con. **P<0.01 compared to WT Con.
To further explore this idea, we also measured the levels of the ROS (H2O2) in diaphragm muscle homogenates. […] This highlights important differences between dystrophic muscle, where statins reduce oxidative stress derived from NOX2, and normal muscle susceptible to statin myopathy, where mitochondrial ROS increases oxidative stress.

mdx mice [4] = assay: H&E histology of tibialis anterior (TA) muscle; details: mdx Sim vs mdx Con, 8 months treatment

## CCC(C)(C)C(=O)O[C@H]1C[C@@H](C)C=C2C=C[C@H](C)[C@H](CC[C@@H]3C[C@@H](O)CC(=O)O3)[C@H]21 [Simvastatin, simvastatin]
CD68
  reduction of inflammatory cell levels (CD68): ~70%
WT mice [1]
  muscle histology of WT mice (damage, inflammation): no effect; also recorded: no evidence of muscle damage or inflammation
WT mice [1]; listed as simvastatin
  muscle histology of WT mice (damage, inflammation): no effect
WT mice [2]
  CK levels of WT mice: no difference; also recorded: no effect
WT mice [2]; listed as simvastatin
  CK levels of WT mice: no effect
atrogin-1
  atrogin-1 mRNA levels: not significantly different from mdx Con
Mdx mice [3]; mdx Sim vs mdx Con, oral 5-10 mg/kg/day for 8 months from 3 weeks of age
  reduction in plasma creatine kinase (CK) activity level: 85%
Mdx mice [3]; mdx mice, 8 months, drinking water 10 mg/kg/day
  reduction of CK levels compared to untreated mdx mice: ~8 fold
H2O2 (ROS)
  less H2O2 compared to mdx Con: 30%
Mdx mice [4]
  number of centrally nucleated (regenerated) muscle fibers: comparable number
